Laboratory results: the NIST ThermoML archive (doi:10.1016/j.jct.2017.03.026)
“And” between values parts separate entries of the source, which are not always exact repeats. Equal values may be shown once.

Experiment: molar heat capacity at constant pressure
Conditions: 101.33 kPa, Crystal, Small (less than 1 g) adiabatic calorimetry

O.O.O.O.O.O=S(=O)([O-])[O-].[Cu+2] [copper(II) sulfate pentahydrate]
Conditions | molar heat capacity at constant pressure
4.261 K | 0.5156 J/K/mol
4.305 K | 0.5483 J/K/mol
4.311 K | 0.5046 J/K/mol
4.335 K | 0.5159 J/K/mol
4.395 K | 0.5368 J/K/mol
4.524 K | 0.5196 J/K/mol
4.539 K | 0.5173 J/K/mol
4.569 K | 0.4829 J/K/mol
4.583 K | 0.5241 J/K/mol
4.777 K | 0.4969 J/K/mol
4.798 K | 0.4984 J/K/mol
4.823 K | 0.4929 J/K/mol
4.824 K | 0.4432 J/K/mol
4.978 K | 0.5029 J/K/mol
5 K | 0.4962 J/K/mol
5.069 K | 0.4964 J/K/mol
5.082 K | 0.4427 J/K/mol
5.104 K | 0.4944 J/K/mol
5.177 K | 0.4896 J/K/mol
5.342 K | 0.4946 J/K/mol
5.372 K | 0.4889 J/K/mol
5.378 K | 0.4929 J/K/mol
5.56 K | 0.4939 J/K/mol
5.621 K | 0.4969 J/K/mol
5.651 K | 0.4969 J/K/mol
5.749 K | 0.4906 J/K/mol
5.9 K | 0.5111 J/K/mol
5.914 K | 0.4479 J/K/mol
5.925 K | 0.5016 J/K/mol
5.937 K | 0.4989 J/K/mol
6.172 K | 0.5019 J/K/mol
6.291 K | 0.5248 J/K/mol
6.303 K | 0.5186 J/K/mol and 0.4587 J/K/mol
6.448 K | 0.5358 J/K/mol
6.726 K | 0.5553 J/K/mol
6.774 K | 0.5665 J/K/mol
6.778 K | 0.5585 J/K/mol
6.783 K | 0.4881 J/K/mol
7.002 K | 0.5855 J/K/mol
7.249 K | 0.6135 J/K/mol
7.254 K | 0.6117 J/K/mol
7.273 K | 0.6282 J/K/mol
7.547 K | 0.6634 J/K/mol
7.713 K | 0.7001 J/K/mol
7.723 K | 0.6939 J/K/mol
7.725 K | 0.6355 J/K/mol
7.824 K | 0.7166 J/K/mol
8.096 K | 0.7788 J/K/mol
8.182 K | 0.7853 J/K/mol
8.189 K | 0.786 J/K/mol
8.19 K | 0.7356 J/K/mol
8.371 K | 0.8474 J/K/mol
8.632 K | 0.9011 J/K/mol
8.65 K | 0.9014 J/K/mol and 0.8412 J/K/mol
8.653 K | 0.8934 J/K/mol
8.928 K | 0.968 J/K/mol
9.09 K | 1.043 J/K/mol
9.107 K | 0.9518 J/K/mol
9.116 K | 1.028 J/K/mol
9.204 K | 1.057 J/K/mol
9.48 K | 1.134 J/K/mol
9.555 K | 1.149 J/K/mol
9.563 K | 1.103 J/K/mol
9.583 K | 1.165 J/K/mol
9.756 K | 1.2 J/K/mol
10 K | 1.299 J/K/mol
10.02 K | 1.297 J/K/mol and 1.25 J/K/mol
10.03 K | 1.306 J/K/mol
10.05 K | 1.315 J/K/mol
10.4 K | 1.456 J/K/mol
10.7 K | 1.569 J/K/mol
10.71 K | 1.536 J/K/mol
10.77 K | 1.6 J/K/mol
10.86 K | 1.634 J/K/mol
11.32 K | 1.835 J/K/mol
11.62 K | 1.99 J/K/mol
11.63 K | 1.944 J/K/mol
11.7 K | 2.014 J/K/mol
11.78 K | 2.059 J/K/mol
12.24 K | 2.283 J/K/mol
12.54 K | 2.453 J/K/mol
12.55 K | 2.432 J/K/mol
12.62 K | 2.5 J/K/mol
12.7 K | 2.533 J/K/mol
13.16 K | 2.801 J/K/mol
13.47 K | 3.01 J/K/mol and 3.006 J/K/mol
13.55 K | 3.048 J/K/mol
13.62 K | 3.099 J/K/mol
14.09 K | 3.404 J/K/mol
14.24 K | 3.51 J/K/mol
14.39 K | 3.63 J/K/mol
14.4 K | 3.652 J/K/mol
14.48 K | 3.676 J/K/mol
14.55 K | 3.735 J/K/mol
15 K | 4.062 J/K/mol
15.33 K | 4.33 J/K/mol and 4.316 J/K/mol and 4.374 J/K/mol
16.27 K | 5.102 J/K/mol and 5.148 J/K/mol
16.34 K | 5.147 J/K/mol
17.21 K | 5.92 J/K/mol
17.22 K | 5.985 J/K/mol
17.34 K | 6.038 J/K/mol
18.16 K | 6.788 J/K/mol
18.17 K | 6.865 J/K/mol
18.34 K | 6.974 J/K/mol
19.12 K | 7.738 J/K/mol and 7.803 J/K/mol
19.34 K | 7.95 J/K/mol
20 K | 8.662 J/K/mol
20.07 K | 8.711 J/K/mol
20.08 K | 8.781 J/K/mol
20.34 K | 8.968 J/K/mol
21.52 K | 10.37 J/K/mol and 10.5 J/K/mol
21.84 K | 10.73 J/K/mol
22.86 K | 11.97 J/K/mol
23.43 K | 12.81 J/K/mol
23.44 K | 12.67 J/K/mol
23.8 K | 13.12 J/K/mol
23.86 K | 13.21 J/K/mol
24.84 K | 14.42 J/K/mol
25 K | 14.64 J/K/mol
25.35 K | 15.41 J/K/mol
25.49 K | 15.25 J/K/mol
25.75 K | 15.84 J/K/mol
25.81 K | 15.7 J/K/mol
26.5 K | 16.59 J/K/mol
26.79 K | 16.97 J/K/mol
27.28 K | 18.19 J/K/mol
27.48 K | 17.9 J/K/mol
27.72 K | 18.24 J/K/mol
27.77 K | 18.33 J/K/mol
28.45 K | 19.31 J/K/mol
28.75 K | 19.73 J/K/mol
29.23 K | 20.9 J/K/mol
29.43 K | 20.68 J/K/mol
29.7 K | 21.26 J/K/mol
29.73 K | 21.15 J/K/mol
30 K | 21.51 J/K/mol
30.41 K | 22.11 J/K/mol
30.7 K | 22.53 J/K/mol
31.22 K | 23.13 J/K/mol
31.39 K | 23.59 J/K/mol
31.68 K | 24.03 J/K/mol and 23.15 J/K/mol
32.37 K | 25.14 J/K/mol
32.66 K | 25.56 J/K/mol
33.19 K | 26.4 J/K/mol
33.35 K | 26.55 J/K/mol
33.65 K | 27.01 J/K/mol
33.66 K | 26.86 J/K/mol
34.34 K | 28.1 J/K/mol
34.62 K | 28.57 J/K/mol
35 K | 29.13 J/K/mol
35.15 K | 29.64 J/K/mol
35.31 K | 29.65 J/K/mol
35.61 K | 30.07 J/K/mol
35.64 K | 30.19 J/K/mol
36.17 K | 31.27 J/K/mol
36.26 K | 31.26 J/K/mol
36.29 K | 31.18 J/K/mol
36.59 K | 31.76 J/K/mol
